# Laboratory results taken from patent publication US20090098139A1, “Combination therapy for the treatment of neovascular disorders” (priority 2006, published 2009).
# How the values were obtained:
# [1] = tested on: animal counterpart of isoform 121; assay: preclinical binding to VEGF isoform 121 counterpart; conditions: preclinical in vitro and animal studies
# [2] = tested on: normal vessels of the retina; assay: animal study, direct comparison with a VEGF inhibitor that blocks all isoforms: normal retinal vessels; type: in vivo; conditions: the pan-VEGF isoform inhibitor comparator altered their growth and survival
# [3] = tested on: animal counterpart of isoform 165; assay: preclinical animal studies: abnormal blood vessel growth in the retina; type: in vivo; conditions: binding to animal counterpart of VEGF isoform 165
substance,measurement,setting,value
pegaptanib sodium [Macugen],binding with the animal counterpart of isoform 121,[1],did not bind with the animal counterpart of isoform 121 to any significant degree
same,effect on the normal vessels of the retina,[2],did not affect the normal vessels of the retina
same,inhibition of abnormal blood vessel growth in the retina,[3],highly effective in inhibiting abnormal blood vessel growth in the retina
